Data set [1] relates to islet cells / aortal endothelial cells. Description: Chromium release cytotoxicity assay with IS-CD8+ effector cells. The format is cell-based, mouse. The settings on record: for killing of endothelial cells isolated from NOD aorta by IS-CD8+ cells: 0.1 μM exogenous peptide. On the procedure: Chromium release cytotoxicity assay—Pancreatic islets or monolayers of cultured aortal endothelial cells were dispersed into single-cell suspension by incubation in cell-dissociation buffer (Sigma), labeled with 100 μCi of Na2^51CrO4 (ICN Pharmaceuticals, Costa Mesa, Calif.) in 200 μl of complete Click's medium containing 5% FCS for 2 h at 37° C., washed three times, and co-cultured for 8-12 hours in 96-well plates (10^4 targets per well in 200 μl of Click's medium with 5% FCS) with effector IS CD8^+ cells at different effector-to-target ratios with different concentrations of InsB^15-23 peptide. To confirm the cytotoxic potential of IS-CD8^+ cells, labeled P815 mastocytoma (H2^d)cells were loaded with different concentrations of InsB^15-23 peptide and used as targets in the 4 hrs cytotoxicity assay. Specific cytotoxicity was based on the measurement of ^51Cr release in 100 μl aliquots of cell-free supernatant using a gamma-counter (Wallac, Turku, Finland) and calculated using the formula: Specific Cytotoxicity (%)=[(Experimental Release−Spontaneous Release)/(Maximum Release−Spontaneous Release)]×100%.

Data set [2] concerns IS-CD8^+ cells adhesion to aortal endothelium from NOD mice. As to the kind of experiment: Parallel plate flow chamber adhesion assay under shear stress. The data set is classed as cell-based, mouse. On the procedure:
Primary vascular endothelium cell culture—Isolation and culture of vascular endothelium from mouse aorta was performed as described (16). Briefly, neutralized collagen extracellular matrix was aliquoted into 24-well plates, allowed to gel at 37° C. for 60 min, and equilibrated overnight with complete endothelial cell medium consisting of complete Click's medium with 20% FCS, and 50 μg/ml of Endothelial Cell Growth Supplement (Becton-Dickinson). The segments of thoracic aorta from adult NOD mice were placed endothelial-side down onto the collagen gel. Thirty-six hours later, 1 ml of complete endothelial cell medium was carefully added. After 3-5 days, the collagen gel was digested with a 0.3% collagenase H (Sigma) solution and the released cells were transferred to a T25 tissue culture flask. After reaching confluence, cells were detached by incubation with cell-dissociation buffer (Sigma), and split at a 1:3 ratio. Passage 2 to 5 cells were used for the experiments.
Parallel Plate Flow Chamber and Adhesion Assay—Aortal endothelial cells were plated on 35 mm Costar tissue culture dishes and allowed to reach confluence. The cells were then treated for 2 -3 hrs with 100 μM of InsB^15-23 or LLO^91-99 peptides in complete endothelial cell medium. In some experiments anti-K^d (SF 1-1.1) blocking mAbs were added for 20 min before the adhesion assay. The adhesion of IS-CD8^+ cells under shear stress was examined with a parallel plate flow chamber obtained from Glycotech (Rockville, Md.) following the manufacturer's instructions and as previously described (17-19). A flow chamber with a 5-mm-wide gasket was used. Negative flow pressure was generated and controlled with an automated syringe pump (Braintree Scientific, Quincy, Mass.). IS-CD8^+ cells were labeled with CFSE as described above, pretreated in some experiments with 100 ng/ml of mouse recombinant SLC (R&D Systems) in Click's medium for 30 min, and injected at a concentration of 3×10^6/ml into the flow chamber. After IS-CD8^+ cells were allowed to settle on the plate for the indicated length of time, the flow rate was increased stepwise every 10 s in increments of […] (˜4 dynes/cm^2 shear stress) to a maximum of 7.7 ml/min (corresponding to ˜24 dynes/cm^2). Lymphocyte adhesion was visualized with a Leica inverted fluorescent microscope and recorded using a Spot-RT digital camera (Diagnostic Instruments, Sterling Heights, Mich.). Images were converted into digital movies and analyzed using Metamorph software (Universal Imaging Corp., Downingtown, Pa.). Labeled IS-CD8^+ cells were counted in frames separated by equal time intervals from the start of the stress. Adhesion of cells in each frame was determined as a fraction (%) of the initial number of cells in the frame preceding the start of flow.

Data set [3] relates to IS-CD8^+ cells. As to the kind of experiment: PTx-treated IS-CD8+ cells cultured in vitro (viability, peptide response). The data set is classed as cell-based, mouse. The following applies: 24 hrs after treatment (not shown). On the procedure: Treatment with pertussis toxin (PTx)—For treatment with PTx, IS-CD8^+ cells were harvested, resuspended at 10^7 cells/ml in complete medium containing 100 ng/ml of PTx (Sigma) and incubated for 2 h at 37° C. The final 30 min of incubation were combined with DiI-labeling. Treated cells were washed and injected into irradiated hosts or cultured under standard conditions in vitro.

For data set [4], the system named is G-protein-coupled chemokine receptors. Description: Homing of PTx-treated DiI-labeled IS-CD8+ cells after injection into NOD mice. The format is in vivo, mouse. As for the experimental part: Fluorescent tracing and morphometric analysis—For trafficking studies, IS-CD8^+ and control T cells were incubated at 10^7 cells /ml for 30 min at 37° C. in the dark in complete medium containing 5% FCS and 0.0075 mg/ml of fluorescent dye didodecyltetramethylindocarbocyanine perchlorate (DiI) (Molecular Probes, Eugene, Oreg.), then washed 3 times with PBS. For analysis of short-term proliferation and adhesion studies IS-CD8^+ cells were stained in vitro with fluorescent dye carboxyfluorescein diacetate succinimidyl ester (CFSE) (Molecular Probes, Eugene, Oreg.) as described (12). 10^7 of labeled IS-CD8^+ cells were injected i.v. into irradiated (725 Rad, 24 h in advance) animals. Mice were sacrificed at time points indicated, and their spleens, pancreata, lymph nodes, peripheral blood and lungs were removed, lymphocytes were isolated as described (5), stained with allophycocyanin-conjugated anti-CD8 (53-6.7) antibody (BD Pharmingen), and subjected to FACS analysis. Alternatively, organs were fixed in 0.1 M periodate-lysine-paraformaldehyde phosphate buffer, sucrose-saturated, and freeze-molded in OCT compound (Sakura Finetek Inc., Torrance, Calif.). […] Cells were counted within areas relevant to a given islet (see FIG. 1 for representative image). […]

“Also recorded” adds a separate entry of the source.

Consider “LLO^91-99 peptide: control K^d-binding listeriolysin-derived peptide (GYKDGNEYI; UniProt P13128 91-99, looked up, fragment)”, for which the “killing of endothelial cells isolated from NOD aorta by IS-CD8+ cells” value in data set [1] is “no effect”.

On to “LYLVCGERG [InsB^15-23 peptide, synthetic insulin B chain peptide]”, for which, in data set [1], the “killing of endothelial cells isolated from NOD aorta by IS-CD8+ cells” value was “killed”. Further, in data set [1] (peptide added exogenously, 50:1 effector-to-target ratio), the “lysis of islet β cells from H2k/d (C3D2) mice by IS-CD8+ cells” value is listed as “restored”. For the same molecule, in data set [2] (monolayers pre-cultivated with 100 μM peptide, no SLC, FIG. 7A), the “adhesion of the T cells to endothelial monolayers” value is “increased adhesion”. In addition, in data set [2] (peptide-treated monolayers, no SLC), the “contact time with endothelial cells prior to start of flow needed for adhesion significantly different from no-peptide control” value was 300 s.

On to pertussis toxin [PTx], for which, in data set [3], the “response of PTx-treated IS-CD8+ cells to InsB15-23 peptide stimulation” value is recorded as “responded normally” and the “viability of IS-CD8+ cells treated with PTx” value is listed as “did not lose their viability”. The “distribution of PTx-treated IS-CD8+ cells in the spleen” value in data set [4] (NOD mice, vs untreated cells) was “avoided T cell zones”. In addition, the “homing of PTx-treated IS-CD8+ cells to the pancreatic islets” value in data set [4] (cells treated in vitro with 100 ng/ml PTx for 2 h, injected into NOD mice, 24 hrs after injection) is recorded as “abolishes; also recorded: practically absent from the islets”.

B1: SLC: mouse recombinant SLC (R&D Systems), chemokine CCL21 (protein, UniProt P84444 24-133, looked up)
C-C motif chemokine 21a: SDGGGQDCCLKYSQKKIPYSIVRGYRKQEPSLGCPIPAILFSPRKHSKPELCANPEEGWVQNLMRRLDQPPAPGKQSPGCRKNRGTSKSGKKGKGSKGCKRTEQTQPSRG
Take B1: the “time necessary for adhesion” value in data set [2] (T cells pre-treated with 100 ng/ml SLC, endothelium with InsB15-23 peptide) came out at 90 s. In addition, the “baseline adhesion in the absence of specific peptide” value in data set [2] (T cells pre-treated with SLC) is listed as “increased”. Moreover, in data set [2] (T cells pre-treated with SLC vs not exposed to SLC), the “fraction of adherent cells” value is given as “larger”.

The values are drawn from patent US20050008639A1, “Methods of modulating homing of T cell by interruption of chemokine/chemokine receptor signaling” (priority 2003, published 2005).
